Assay results: patent EP0007206A1, “Phenethanolamines, their formulations, preparation and use” (ELI LILLY AND COMPANY, priority 1978, dated 1980)
Counter-ions that a name gives are not always drawn.

How the values were obtained:
[1] = system: Chinese hamster ovary cells; assay: mitotic arrest assay (mitotic inhibitory activity); type: cell-based; settings: 20.0 mcg/ml, five hours contact
Method: One such test, for example, was a determination of mitotic inhibitory activity. The compounds of this invention have the ability to arrest cultured cells at the mitotic phase (metaphase) of the cell cycle without apparent effect on other stages of the cell cycle. Such mitotic inhibitory activity is an indication that the compounds may have a beneficial effect on the biological activities of antineoplastic drugs. […] The compounds of the invention were administered at 20 mcg./ml. and the number of cells arrested at the mitotic phase out of 1000 cultured cells were counted and compared to the controls which underwent mitotic arrest without a drug present. Two evaluations were carried out for each test compound. The results reported are the percent of cells held at mitosis after five hours contact with the compound of this invention.

[2] = system: adenocarcinoma (CA 755 tumor); assay: combination chemotherapy with vindesine, implanted adenocarcinoma (Table 5); type: in vivo, mice; settings: vindesine 0.6 mg./kg. i.p. days 1, 5, 9, 13, B 7.5 mg./kg. i.p. twice daily first 15 days
Method: (§1) In a typical experiment, laboratory mice were infected by a subcutaneous implantation of a tumor tissue in the axillary region of the body. The implantations were accomplished by means of a trocar. Initial tumor size in each animal generally was about 2 square millimeters. Tumor size was then measured periodically as length and width in mm. Typical tumor systems implanted included adenocarcinoma 755, an Aly Fast strain of bronchiogenic carcinoma, and mecca lymphosarcoma. Oncolytic agents utilized in the tests to determine the potentiating effects of the compounds of the invention.include cytoxan, 5-fluorouracil, vindesine, methotrexate and 6-mercaptopurine. Twenty or thirty infected animals generally were selected as controls and received placebo. Ten infected animals normally were selected to receive a known oncolytic agent. Another ten infected animals were administered the known oncolytic agent in addition to a compound of this invention.
The animals receiving combination chemotherapy were administered vindesine intraperitoneally according to the above-indicated dosage regimen, and N-(2-phenyl-2-hydroxyethyl)-1,1-dimethyl-3-(4-aminocarbonylphenyl)propylaminium chloride was administered intraperitoneally at the rate of 7.5 mg./kg. twice daily for the first 15 days of the test. Under column I of each of the indicated days of measurement is given the average tumor size in square millimeters for each test group. Column II under each of the indicated days of measurement provides the number of tumor free animals out of those still living on that particular day in each test group. […] In contrast, all of the control animals and those receiving vindesine alone had died by day 40, and none were tumor free after the thirteenth day of the test.

[3] = system: 755 adenocarcinoma; assay: combination chemotherapy with cytoxan at varying doses, implanted 755 adenocarcinoma (Table 8); type: in vivo
Method: as §1
A similar study was carried out with cytoxan at varying doses and the combination of cytoxan and N-(2-phenyl-2-hydroxyethyl)-l,l-dimethyl-3-(4-aminocarbonylphenyl)propylaminium chloride. A group of ten animals infected with the 755 adenocarcinoma were given cytoxan intraperitoneally at the rate of 25 mg./kg. once per day on days 5, 9 and 13 of the test. Another group of infected animals received cytoxan at 12.5 mg./kg. once per day on days 5, 9 and 13. A third group of infected animals received the combination of cytoxan, given i.p. at 12.5 mg./kg. on days 5, 9 and 13, and the compound of this invention (compound B) given subcutaneously twice daily on days 5 through 14 at the dose of 7.5 mg./kg. As indicated by the data, all of the control animals and those receiving the oncolytic agent alone were dead after 73 days. In contrast, six of the ten animals which received combination chemotherapy were still living after 73 days of the test, and all of those still living were tumor free.

[4] = system: aly fast tumor strain of bronchiogenic carcinoma of the lung; assay: combination chemotherapy with cytoxan, implanted bronchiogenic carcinoma (Table 4); type: in vivo, hamsters; settings: cytoxan 10 mg./kg. i.p. once daily, A 10 mg./kg. s.c. twice daily
Method: as §1
In a similar test, hamsters were infected with an aly fast tumor strain of bronchiogenic carcinoma of the lung. Cytoxan was administered to one group of infected animals at an intraperitoneal dose of 10 mg./kg. once daily. A compound of this invention, N-(2-phenyl-2-hydroxyethyl)-l,l-dimethyl-3-(4-hydroxyphenyl)propylaminium bromide (designated in Table 4 as A), caused a significant synergistic effect when co-administered with cytoxan. Cytoxan was administered i.p. once daily at 10 mg./kg. to the animals receiving the combination chemotherapy, and compound A was administered subcutaneously at the rate of 10 mg./kg. twice daily. It should be noted that the average tumor size for the animals receiving the combination of cytoxan and N-(2-phenyl-2-hydroxyethyl)-l,l-dimethyl-3-(4-hydroxyphenyl)-propylaminium bromide was only 20 square millimeters after the nineteenth day of treatment, while the average tumor size for the group receiving cytoxan was about the same as that for the animals receiving placebo, namely about 1340 square millimeters.

[5] = Day 5, cytoxan 12.5 mg./kg. i.p. days 5, 9, 13, B 7.5 mg./kg. s.c. twice daily days 5 through 14
[6] = Day 5, cytoxan 25 mg./kg. i.p. once per day on days 5, 9, 13
[7] = Day 12, cytoxan 12.5 mg./kg. i.p. days 5, 9, 13, B 7.5 mg./kg. s.c. twice daily days 5 through 14
[8] = Day 12, cytoxan 25 mg./kg. i.p. once per day on days 5, 9, 13
[9] = Day 17, cytoxan 12.5 mg./kg. i.p. days 5, 9, 13, B 7.5 mg./kg. s.c. twice daily days 5 through 14
[10] = Day 17, cytoxan 25 mg./kg. i.p. once per day on days 5, 9, 13
[11] = Day 23, cytoxan 12.5 mg./kg. i.p. days 5, 9, 13, B 7.5 mg./kg. s.c. twice daily days 5 through 14
[12] = Day 23, cytoxan 25 mg./kg. i.p. once per day on days 5, 9, 13
[13] = Day 29, cytoxan 12.5 mg./kg. i.p. days 5, 9, 13, B 7.5 mg./kg. s.c. twice daily days 5 through 14
[14] = Day 29, cytoxan 25 mg./kg. i.p. once per day on days 5, 9, 13

Structure (SMILES): CNC(=O)c1ccc(CCC(C)(C)NCC(O)c2ccccc2)cc1 (racemic) [N-(2-phenyl-2-hydroxyethyl)-l,l-dimethyl-3-(4-methylaminocarbonylphenyl)propylaminium chloride]
- Mitotic Index (percent of cells held at mitosis) ([1]; first of two evaluations): 36%
- Mitotic Index (percent of cells held at mitosis) ([1]; second of two evaluations): 38%

Structure (SMILES): CN(C)C(=O)c1ccc(CCC(C)(C)NCC(O)c2ccccc2)cc1 (racemic) [N-(2-phenyl-2-hydroxyethyl)-1,1-dimethyl-3-(4-dimethylaminocarbonylphenyl)propylaminium oxalate]
- Mitotic Index (percent of cells held at mitosis) ([1]; first of two evaluations): 40%
- Mitotic Index (percent of cells held at mitosis) ([1]; second of two evaluations): 46%

Structure (SMILES): CC(C)(CCc1ccc(C(N)=O)cc1)NCC(O)c1ccccc1 (centres unmarked) [N-(2-Phenyl-2-hydroxyethyl)-1,1-dimethyl-3-(4-aminocarbonylphenyl)propylamine]
- Mitotic Index (percent of cells held at mitosis) ([1]; first of two evaluations): 57%
- Mitotic Index (percent of cells held at mitosis) ([1]; second of two evaluations): 45%

Structure (SMILES): CC(C)(CCc1ccc(O)cc1)NCC(O)c1ccccc1 (racemic) [N-(2-Phenyl-2-hydroxyethyl)-l,l-dimethyl-3-(4-hydroxyphenyl)propylamine]
- Mitotic Index (percent of cells held at mitosis) ([1]; first of two evaluations): 36%
- Mitotic Index (percent of cells held at mitosis) ([1]; second of two evaluations): 33%

Structure (SMILES): CCC1(O)CC2CN(CCc3c([nH]c4ccccc34)C(C(=O)OC)(c3cc4c(cc3OC)N(C)C3C(O)(C(N)=O)C(O)C5(CC)C=CCN6CCC43C65)C2)C1 (centres unmarked) [VDS, vindesine]
- number of tumor free animals out of those still living ([2]; Day 0): 0/10
- average tumor size ([2]; Day 8): 35 square millimeters
- number of tumor free animals out of those still living ([2]; Day 8): 3/9
- average tumor size ([2]; Day 13): 170 square millimeters
- number of tumor free animals out of those still living ([2]; Day 13): 0/8
- average tumor size ([2]; Day 19): 300 square millimeters
- number of tumor free animals out of those still living ([2]; Day 19): 0/8
- average tumor size ([2]; Day 26): 620 square millimeters
- number of tumor free animals out of those still living ([2]; Day 26): 0/6
- number of tumor free animals out of those still living ([2]; Day 40): 0/0

Structure (SMILES): O=P1(N(CCCl)CCCl)NCCCO1 (centres unmarked) [Cytoxan, cytoxan]
- number of tumor free animals out of those still living ([3]; Day 0, cytoxan 12.5 mg./kg. i.p. days 5, 9, 13, B 7.5 mg./kg. s.c. twice daily days 5 through 14): 0/10
- number of tumor free animals out of those still living ([3]; Day 0, cytoxan 25 mg./kg. i.p. once per day on days 5, 9, 13): 0/10
- average tumor size [3, 5]: 130
- number of tumor free animals out of those still living [3, 5]: 0/10
- average tumor size [3, 6]: 80
- number of tumor free animals out of those still living [3, 6]: 0/10
- average tumor size [3, 7]: 190
- number of tumor free animals out of those still living [3, 7]: 0/10
- average tumor size [3, 8]: 60
- number of tumor free animals out of those still living [3, 8]: 1/10
- average tumor size [3, 9]: 300
- number of tumor free animals out of those still living [3, 9]: 0/10
- average tumor size [3, 10]: 60
- number of tumor free animals out of those still living [3, 10]: 4/10
- average tumor size [3, 11]: 600
- number of tumor free animals out of those still living [3, 11]: 1/9
- average tumor size [3, 12]: 200
- number of tumor free animals out of those still living [3, 12]: 2/9
- average tumor size [3, 13]: 800
- number of tumor free animals out of those still living [3, 13]: 0/4
- average tumor size [3, 14]: 570
- number of tumor free animals out of those still living [3, 14]: 0/4
- number of tumor free animals out of those still living ([3]; Day 73, cytoxan 12.5 mg./kg. i.p. days 5, 9, 13, B 7.5 mg./kg. s.c. twice daily days 5 through 14): 0/0
- number of tumor free animals out of those still living ([3]; Day 73, cytoxan 25 mg./kg. i.p. once per day on days 5, 9, 13): 0/0
- number of surviving animals out of test group ([4]; Day 0): 10/10
- average tumor size ([4]; Day 8): 560 square millimeters
- number of surviving animals out of test group ([4]; Day 8): 10/10
- average tumor size ([4]; Day 13): 950 square millimeters
- number of surviving animals out of test group ([4]; Day 13): 9/10
- average tumor size ([4]; Day 19): 1340 square millimeters
- number of surviving animals out of test group ([4]; Day 19): 6/10
- average tumor size ([4]; Day 19, listed as cytoxan): about 1340 square millimeters
